# Assay results reported in EP4737442A1, “DIAMINOVINYLIDENE DERIVATIVE OR SALT THEREOF, PEST CONTROL AGENT CONTAINING SAID COMPOUND, AND METHODS FOR USING THESE” (ADEKA CORPORATION, priority 2023, dated 2025).
# Assays:
# [1] = tested on: Dirofilaria immitis; assay: Effect test on Dirofilaria immitis (larval motility inhibition); settings: 168 h, read-out: motility inhibition rate
# [2] = tested on: Laodelphax striatellus; assay: Insecticidal test against Laodelphax striatellus; settings: in Oryza sativa, 192 h, read-out: corrected mortality (%), assessment
# [3] = tested on: Frankliniella occidentalis; assay: Insecticidal test against Frankliniella occidentalis; settings: in Phaseolus vulgaris, 96 h, read-out: corrected mortality (%), assessment
# Text: Female adults of Frankliniella occidentalis were inoculated onto Phaseolus vulgaris leaf pieces, and after allowing them to lay eggs for one day, the female adults were removed. […] Four days after the treatment, the number of surviving larvae of this species larvae was examined.
# [4] = tested on: Plutella xylostella; assay: Insecticidal test against Plutella xylostella; settings: in Brassica rapa, 144 h, read-out: corrected mortality (%), assessment
# Text: Six days after the immersion in the drug solution, the number of surviving insects was examined.
SMILES,inhibition at 100 µM [1],mortality at 500 ppm [2],mortality at 500 µg/mL [3],mortality at 500 µg/mL [4]
"COC(=O)N1C(=O)C(=C(NCC(F)F)Nc2ccc(F)cc2)C(=O)CN1c1ccc(C#N)nc1 [compound No. 6-15, methyl 2-(6-cyanopyridin-3-yl)-5-(((2,2-difluoroethyl)amino) ((4-fluorophenyl)amino)methylene)-4,6-dioxotetrahydropyridazine-1(2H)-carboxylate]",≥ 50%,100%,,
"NC(Nc1ccc(F)cc1)=C1C(=O)CCCN(c2ccc(C(F)(F)F)cc2)C1=O [compound No. 5-1, 3-(amino((4-fluorophenyl)amino)methylene)-1-(4-(trifluoromethyl)phenyl)azepane-2,4-dione]",,100%,,
COC(=O)N1C(=O)C(=C(Nc2ccc(F)cc2)Nc2ccc(F)cc2)C(=O)CN1c1ccc(C#N)nc1 [6-4],≥ 50%,100%,100%,
CNC(Nc1ccc(F)cc1)=C1C(=O)CN(c2ccc(C#N)nc2)N(Cc2cnc(Cl)s2)C1=O [6-38],≥ 50%,,100%,
CNC(Nc1ccc(F)nc1)=C1C(=O)CC(c2ccc(C(F)(F)F)cc2)NC1=O (stereo not drawn) [3-11],≥ 50%,100%,,100%
CNC(Nc1ccc(F)nc1)=C1C(=O)CC(c2nc(-c3ccc(F)cc3)cs2)NC1=O (stereo not drawn) [3-23],≥ 50%,100%,,100%
Cn1nc(C2CC(=O)C(=C(Nc3ccc(F)cc3)Nc3ccc(F)nc3)C(=O)N2)cc1OC(F)F (stereo not drawn) [3-22],≥ 50%,100%,,100%
COCCOC(=O)N1C(=O)C(=C(Nc2cccc(F)c2)Nc2cccc(F)c2)C(=O)CN1c1ccc(C#N)nc1 [6-6],≥ 50%,100%,100%,100%
"CC(C)(C)OC(=O)N1CC(=O)C(=C(Nc2ccc(F)cn2)Nc2ccc(F)cn2)C(=O)C1 [compound No. 4-10, tertiary butyl 4-(bis((5-fluoropyridin-2-yl)amino)methylene)-3,5-dioxopiperidine-1-carboxylate]",,100%,,
CNC(Nc1ccc(F)cc1)=C1C(=O)CN(c2cnc(C#N)c(Br)c2)N(C)C1=O [6-47],≥ 50%,100%,100%,
CSC(Nc1ccc(F)nc1)=C1C(=O)CC(c2cc(OC(F)F)n(C)n2)NC1=O (stereo not drawn) [9-35],≥ 50%,100%,100%,100%
CC(C)(C)c1ccc(CSC(Nc2ccc(F)nc2)=C2C(=O)CC(c3cnc(Cl)c(Br)c3)NC2=O)cc1 (stereo not drawn) [9-32],≥ 50%,100%,,100%
CSC(Nc1ccc(F)nc1)=C1C(=O)CC(c2nc(-c3ccc(F)cc3)cs2)NC1=O (stereo not drawn) [9-36],≥ 50%,100%,100%,100%
CNC(Nc1ccc(F)c(F)c1)=C1C(=O)CN(c2ccc(Br)nc2)N(C(=O)OC)C1=O [6-22],≥ 50%,100%,,
CCOC(=O)N1C(=O)C(=C(NC)Nc2cccc(F)c2)C(=O)CN1c1ccc(C#N)c(Cl)c1 [6-30],≥ 50%,,100%,
CNC(Nc1ccc(F)cc1)=C1C(=O)CN(c2cnc(C#N)c(Br)c2)N(C(=O)OC)C1=O [6-20],≥ 50%,100%,100%,
NC(Nc1ccc(F)cc1)=C1C(=O)CC(c2cnc(Cl)c(Br)c2)NC1=O (stereo not drawn) [3-42],≥ 50%,100%,,100%
COCCOC(=O)N1C(=O)C(=C(Nc2ccc(OC)cc2)Nc2ccc(OC)cc2)C(=O)CN1c1ccc(C#N)nc1 [6-7],≥ 50%,100%,,
